# Measurements taken from ChEMBL document CHEMBL5233220, “A review of currently identified small molecule modulators of microRNA function” (Eur J Med Chem, 2020).
# Several values for one entry are separate records, joined by “and”; a condition that tells them apart may be missing. Identical values can stand only once. Counter-ions that a name gives are not always drawn.
# How the values were obtained:
# Protein argonaute-2 = Protein argonaute-2 (Homo sapiens, UniProt Q9UKV8); assay: Inhibition of AGO2 (unknown origin)
# Chain of Protein argonaute-2 (Q9UKV8 whole entry): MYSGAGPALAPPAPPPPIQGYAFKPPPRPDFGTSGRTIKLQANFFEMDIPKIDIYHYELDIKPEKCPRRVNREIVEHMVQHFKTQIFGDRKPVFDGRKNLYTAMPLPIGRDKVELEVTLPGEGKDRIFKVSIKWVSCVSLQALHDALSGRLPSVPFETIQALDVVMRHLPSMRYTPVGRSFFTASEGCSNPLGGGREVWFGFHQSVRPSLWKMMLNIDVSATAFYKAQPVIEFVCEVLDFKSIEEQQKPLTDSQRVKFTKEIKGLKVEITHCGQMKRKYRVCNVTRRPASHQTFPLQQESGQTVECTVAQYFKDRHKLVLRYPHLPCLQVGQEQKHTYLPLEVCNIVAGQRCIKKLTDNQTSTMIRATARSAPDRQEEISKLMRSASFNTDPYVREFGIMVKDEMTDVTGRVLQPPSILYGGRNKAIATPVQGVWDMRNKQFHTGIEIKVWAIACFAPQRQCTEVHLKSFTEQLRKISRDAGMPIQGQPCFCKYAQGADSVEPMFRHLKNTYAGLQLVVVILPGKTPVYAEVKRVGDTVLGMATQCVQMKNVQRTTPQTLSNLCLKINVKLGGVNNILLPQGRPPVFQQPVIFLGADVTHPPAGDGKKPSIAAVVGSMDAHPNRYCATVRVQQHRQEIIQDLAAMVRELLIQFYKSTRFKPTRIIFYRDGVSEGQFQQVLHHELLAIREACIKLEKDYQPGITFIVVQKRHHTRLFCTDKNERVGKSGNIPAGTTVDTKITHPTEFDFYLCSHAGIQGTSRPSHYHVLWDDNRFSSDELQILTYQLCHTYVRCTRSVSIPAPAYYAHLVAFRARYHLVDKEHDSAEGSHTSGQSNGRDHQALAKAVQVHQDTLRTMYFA
# [1] = Inhibition of pre-miR-372 (unknown origin) by FRET assay
# [2] = Inhibition of pre-miR-373 (unknown origin) by FRET assay
# [3] = Inhibition of pre-miR-373 (unknown origin) at 250 uM by FRET assay relative to control
# [4] = Inhibition of miR-27a (unknown origin) maturation at 5 uM relative to control
# Protein lin-28 homolog A = molecular target: T1, Protein lin-28 homolog A (Homo sapiens, UniProt Q9H9Z2); assay: Inhibition of LIN28A (unknown origin) by FRET assay
# T1 sequence (Q9H9Z2 whole entry): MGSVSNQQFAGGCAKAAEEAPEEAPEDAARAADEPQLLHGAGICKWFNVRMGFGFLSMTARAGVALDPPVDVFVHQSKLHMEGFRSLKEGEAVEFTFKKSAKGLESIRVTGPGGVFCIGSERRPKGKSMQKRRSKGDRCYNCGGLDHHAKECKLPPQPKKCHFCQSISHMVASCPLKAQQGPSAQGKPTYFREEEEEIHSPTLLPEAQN
# MCF7 = assay: Inhibition of miR-122 in human MCF7 cells relative to control; assay type: cell-based; conditions: dose or concentration not given here
# [5] = Binding affinity to pre-miR-21 (unknown origin) assessed as dissociation constant by microarray assay
# [6] = Binding affinity to pre-miR-21 (unknown origin) assessed as dissociation constant by fluorescence-based assay
# [7] = Binding affinity to pre-miR-373 (unknown origin) assessed as dissociation constant
# [8] = Inhibition of miR-122 (unknown origin) assessed as relative light unit by luciferase assay
# BCL1 = assay: Inhibition of cell growth in mouse BCL1 cells; assay type: functional, cell-based
# [9] = Activation of miR-122 (unknown origin) assessed as relative light unit by luciferase assay; conditions: filed as activator
# [10] = Binding affinity to pre-miR-21 (unknown origin) at A bulge assessed as dissociation constant by dicer assay
# [11] = Inhibition of pre-miR-21 (unknown origin) at 5 uM by FP assay relative to control
# [12] = Binding affinity to miR-96 (unknown origin) assessed as dissociation constant; design: species or system Homo sapiens
# [13] = Binding affinity to pre-miR-21 (unknown origin) assessed as melting temperature by differential scanning fluorimetry analysis
# [14] = Inhibition of pre-miR-21 (unknown origin) by FP assay
# [15] = Inhibition of miR-122 (unknown origin) by luciferase assay
# Huh-7 = assay: Inhibition of miR-122 in human Huh-7 cells relative to control; assay type: cell-based; conditions: dose or concentration not given here
# [16] = Inhibition of miR-21 in human HeLa cells by luciferase assay; assay type: cell-based
# HeLa [17] = assay: Inhibition of pre-miR-21 in human HeLa cells by qRT-PCR assay relative to control; assay type: cell-based; conditions: dose or concentration not given here
# HeLa [18] = assay: Inhibition of miR-21 in human HeLa cells by qRT-PCR assay relative to control; assay type: cell-based; conditions: dose or concentration not given here
# HeLa [19] = assay: Inhibition of miR-96 maturation in human HeLa cells at 40 uM by luciferase assay relative to control; assay type: cell-based
# [20] = Activation of miR-122 (unknown origin) by luciferase assay
smiles,measurement,setting,value
N=C(N)NCc1ccc(Oc2ccccc2)cc1,IC50,Protein argonaute-2,> 1000 µM
CCCCNC(=O)Nc1ccc2oc(CCc3cn([C@H]4O[C@@H](O[C@@H]5[C@@H](O)[C@H](N)C[C@H](N)[C@H]5O[C@H]5O[C@H](CN)[C@@H](O)[C@H](O)[C@H]5N)[C@H](O)[C@@H]4O[C@H]4O[C@@H](CN)[C@@H](O)[C@H](O)[C@H]4N)nn3)nc2c1,IC50,[1],16.3 µM
same,IC50,[2],20.8 µM
same,inhibition,[3],20%
NC[C@@H]1O[C@H](O[C@H]2[C@@H](O)[C@H](O[C@@H]3[C@@H](O)[C@H](N)C[C@H](N)[C@H]3O[C@H]3O[C@H](CN)[C@@H](O)[C@H](O)[C@H]3N)O[C@@H]2CO)[C@H](N)[C@@H](O)[C@@H]1O [FRAMYCETIN],IC50,[1],125 µM
same,IC50,[2],178 µM
same,inhibition,[3],100%
same,inhibition,[4],25%
CC(=O)N(C)c1cccc(-c2ccc3nnc(C)n3n2)c1,IC50,Protein lin-28 homolog A,8 µM
NCCc1cc(O)c(O)cc1O [OXIDOPAMINE HYDROCHLORIDE],IC50,Protein argonaute-2,1.61 µM
CCOc1cccc2c1N[C@@H](c1ccc(C(=O)O)cc1)[C@H]1CC=C[C@@H]21,IC50,Protein lin-28 homolog A,7 µM
O=C(c1ccccc1)c1c2c3c(cccc3c3ccccc13)C(=O)C=C2,inhibition,MCF7,30%
NC[C@H]1O[C@H](O[C@H]2[C@H](O)[C@@H](O[C@H]3O[C@H](CO)[C@@H](O)[C@H](N)[C@H]3O)[C@H](N)C[C@@H]2N)[C@H](N)C[C@@H]1O,inhibition,[4],10%
CCOc1ccc(NCC(O)Cn2c3ccc(Br)cc3c3cc(Br)ccc32)cc1 (stereo not drawn),Kd,[5],1.2 µM
COc1ccccc1CCNC1CC(=O)C(c2ccc(C)cc2)C1=O (stereo not drawn),Kd,[6],38 µM
NC[C@@H]1O[C@H](O[C@H]2[C@@H](O)[C@H](O[C@@H]3[C@@H](O)[C@H](N)C[C@H](N)[C@H]3O[C@H]3O[C@H](CN)[C@@H](O)[C@H](O)[C@H]3N)O[C@@H]2n2cc(CCc3nc4cc(NC(=O)Nc5ccccc5)ccc4o3)nn2)[C@H](N)[C@@H](O)[C@@H]1O,IC50,[1],4.17 µM
same,IC50,[2],0.54 µM
same,inhibition,[3],20%
same,Kd,[7],0.014 µM
CCCCCCNS(=O)(=O)c1ccc2c(c1)CCCN2,Activity,[8],11.9 RLU
O=[N+]([O-])c1ccc2nc(-c3ccccc3)nc(-c3ccccc3)c2c1,EC50,BCL1,20 µM
CN(C)CCN1C(=O)c2cccc3cccc(c23)C1=O,Activity,[9],0.18 RLU
NC[C@H]1O[C@H](O[C@H]2[C@H](O)[C@@H](O[C@H]3O[C@H](CO)[C@@H](O)[C@H](N)[C@H]3O)[C@H](N)C[C@@H]2N)[C@H](O)[C@@H](O)[C@@H]1O,inhibition,[4],25%
COc1cccc2c1C(=O)c1c(O)c3c(c(O)c1C2=O)C[C@@](O)(C(=O)CO)C[C@@H]3O[C@H]1C[C@H](N)[C@@H](O)[C@H](C)O1 [EPIRUBICIN],Kd,[10],0.024 µM
CCCCNC(=O)Nc1cccc(-c2cn(Cc3cn([C@H]4O[C@@H](O[C@@H]5[C@@H](O)[C@H](N)C[C@H](N)[C@H]5O[C@H]5O[C@H](CN)[C@@H](O)[C@H](O)[C@H]5N)[C@H](O)[C@@H]4O[C@H]4O[C@@H](CN)[C@@H](O)[C@H](O)[C@H]4N)nn3)cn2)c1,IC50,[1],25.6 µM
same,IC50,[2],17.3 µM
same,inhibition,[3],20%
NC[C@@H]1O[C@H](O[C@H]2[C@@H](O)[C@H](O[C@@H]3[C@@H](O)[C@H](N)C[C@H](N)[C@H]3O[C@H]3O[C@H](CN)[C@@H](O)[C@H](O)[C@H]3N)O[C@@H]2CSCCNC(=O)CCCCCn2cc(Oc3ccc4c(c3)C(=O)N(O)C(=O)C4)nn2)[C@H](N)[C@@H](O)[C@@H]1O,inhibition,[11],90%
CCCN(CC(=O)N(CCC)CC(=O)N(CC(=O)NCCCNCCCNC(=O)c1csc(-c2csc(CCNC(=O)[C@@H](NC(=O)[C@@H](C)[C@H](O)[C@@H](C)NC(=O)[C@@H](NC(=O)c3nc([C@H](CC(N)=O)NC[C@H](N)C(N)=O)nc(N)c3C)[C@@H](O[C@@H]3O[C@@H](CO)[C@@H](O)[C@H](O)[C@@H]3O[C@H]3O[C@H](CO)[C@@H](O)[C@H](OC(N)=O)[C@@H]3O)c3c[nH]cn3)[C@@H](C)O)n2)n1)Cc1cn(CCCNC(=O)CCCOc2c(C(C)(C)C)cc(-c3nc4ccc(N5CCN(C)CC5)cc4[nH]3)cc2C(C)(C)C)nn1)C(=O)CCCOc1cccc(-c2nc3ccc(-c4nc5ccc(N6CCN(C)CC6)cc5[nH]4)cc3[nH]2)c1,Kd,[12],0.064 µM
COc1ccc(NCC(O)Cn2c3ccc(Br)cc3c3cc(Br)ccc32)cc1 (stereo not drawn),Kd,[5],0.7 µM and 0.8 µM
same,Tm,[13],-2.3 °C
O=C(Nc1ccc2ccccc2c1)c1ccc([N+](=O)[O-])cc1,Activity,[8],6.2 RLU
NC(Cc1cc(O)c(O)cc1O)C(=O)O (stereo not drawn),IC50,[14],7.05 µM
CC(=O)c1ccc(C(=O)Nc2ccc3ccccc3c2)cc1,Activity,[8],6.7 RLU
NC[C@@H]1O[C@H](O[C@H]2[C@@H](O)[C@H](O[C@@H]3[C@@H](O)[C@H](N)C[C@H](N)[C@H]3O[C@H]3O[C@H](CN)[C@@H](O)[C@H](O)[C@H]3N)O[C@@H]2n2cc(Cn3cnc(-c4cccc(NC(=O)c5ccccc5)c4)c3)nn2)[C@H](N)[C@@H](O)[C@@H]1O,IC50,[1],8.3 µM
same,IC50,[2],8.96 µM
same,inhibition,[3],20%
CC1(C)Oc2cc(N3CCN(C(=O)OCc4ccccc4)CC3)c([N+](=O)[O-])cc2-c2c1cnn2-c1ccc(C(=O)O)cc1,IC50,Protein lin-28 homolog A,4.03 µM
COc1cccc2c1C(=O)c1c(O)c3c(c(O)c1C2=O)C[C@@](O)(C(=O)CO)C[C@@H]3O[C@H]1C[C@H](N)[C@H](O)[C@H](C)O1 [DOXORUBICIN],Kd,[10],0.058 µM
Cc1ccc(C(=O)Nc2ccc(S(=O)(=O)O)c3cc(S(=O)(=O)O)cc(S(=O)(=O)O)c23)cc1NC(=O)c1cccc(NC(=O)Nc2cccc(C(=O)Nc3cc(C(=O)Nc4ccc(S(=O)(=O)O)c5cc(S(=O)(=O)O)cc(S(=O)(=O)O)c45)ccc3C)c2)c1 [SURAMIN],IC50,Protein argonaute-2,0.69 µM
Cc1ccccc1NCC(O)Cn1c2ccc(Br)cc2c2cc(Br)ccc21 (stereo not drawn),Kd,[5],2.3 µM
same,Tm,[13],-5.1 °C
O=C(O)c1ccc2nc3c4c(O)ccc(O)c4c(=O)c(Cl)c-3oc2c1,IC50,[14],4.71 µM
OC(CNc1ccc(N2CCOCC2)cc1)Cn1c2ccc(Br)cc2c2cc(Br)ccc21 (stereo not drawn),Kd,[5],2.1 µM
O=C(Nc1ccc2ccccc2c1)c1ccc(Cl)cc1Cl,IC50,[15],3 µM
same,Activity,[8],7.73 RLU
same,inhibition,Huh-7,48%
C#CCNC(=O)c1ccc(/N=N/c2ccccc2)cc1,EC50,[16],2 µM
same,inhibition,HeLa [17],87%
same,inhibition,HeLa [18],87%
O=c1cc(N2CCC(N3CCCC3)CC2)c2ccccc2o1,Kd,[6],23 µM
C/C(=N\NC(=O)c1ccccn1)c1c(C)[nH]n(-c2ccccc2)c1=O,Kd,[6],109 µM
NC[C@@H]1O[C@H](O[C@H]2[C@@H](O)[C@H](O[C@@H]3[C@@H](O)[C@H](N)C[C@H](N)[C@H]3O[C@H]3O[C@H](CN)[C@@H](O)[C@H](O)[C@H]3N)O[C@@H]2n2cc(CCC(=O)NCC(=O)Nc3nc4ccccc4[nH]3)nn2)[C@H](N)[C@@H](O)[C@@H]1O,IC50,[1],10.3 µM
same,IC50,[2],8.57 µM
same,inhibition,[3],20%
CCCN(CC(=O)N(CCC)CC(=O)N(CC(N)=O)Cc1cn(CCCNC(=O)CCCOc2c(C(C)(C)C)cc(-c3nc4cc(N5CCN(C)CC5)ccc4[nH]3)cc2C(C)(C)C)nn1)C(=O)CCCOc1cccc(-c2nc3ccc(-c4nc5ccc(N6CCN(C)CC6)cc5[nH]4)cc3[nH]2)c1,Kd,[12],0.2 µM
O=[N+]([O-])c1ccc2nc(-c3ccccc3O)nc(-c3ccccc3)c2c1,EC50,BCL1,20 µM
O=S(=O)(c1ccc2c(c1)CCCN2)N1CCC[C@H]2CCCC[C@@H]21,IC50,[15],0.6 µM
same,Activity,[8],0.6 RLU
same,inhibition,Huh-7,47%
OC(CNc1cccc(Cl)c1)Cn1c2ccc(Br)cc2c2cc(Br)ccc21 (stereo not drawn),Kd,[5],1.2 µM and 0.8 µM
CN1CCN(c2ccc3nc(-c4cc(C(C)(C)C)c(OCCCC(=O)NCCCN=[N+]=[N-])c(C(C)(C)C)c4)[nH]c3c2)CC1,inhibition,HeLa [19],90%
O=[N+]([O-])c1ccc2nc(-c3ccccc3[N+](=O)[O-])nc(-c3ccccc3)c2c1,EC50,BCL1,20 µM
CC(=O)Nc1csc(-c2cccc(NC(=O)CCc3cn([C@H]4O[C@@H](O[C@@H]5[C@@H](O)[C@H](N)C[C@H](N)[C@H]5O[C@H]5O[C@H](CN)[C@@H](O)[C@H](O)[C@H]5N)[C@H](O)[C@@H]4O[C@H]4O[C@@H](CN)[C@@H](O)[C@H](O)[C@H]4N)nn3)c2)n1,IC50,[1],2.43 µM
same,IC50,[2],5.13 µM
same,inhibition,[3],20%
same,Kd,[7],0.014 µM
CN(C)CCN1C(=O)c2cccc3cc(N)cc(c23)C1=O [AMONAFIDE],IC50,[20],3 µM
same,Activity,[9],0.11 RLU
c1ccc(CN(CCN(Cc2ccccn2)Cc2ccccn2)Cc2ccccn2)nc1,IC50,Protein lin-28 homolog A,2.5 µM
CCCOc1ccc(NCC(O)Cn2c3ccc(Br)cc3c3cc(Br)ccc32)cc1 (stereo not drawn),Kd,[5],2.2 µM
O=S(=O)(Nc1ccccc1)c1ccc2c(c1)CCCN2,Activity,[8],9.9 RLU
CN[C@@H]1[C@H](O[C@H]2[C@H](O[C@H]3[C@H](O)[C@@H](O)[C@H](N=C(N)N)[C@@H](O)[C@@H]3N=C(N)N)O[C@@H](C)[C@]2(O)C=O)O[C@@H](CO)[C@H](O)[C@H]1O,inhibition,[4],25%
